{"source": "patent US8916681B2", "about": "“Compound, use and method” (Medical Research Council, priority 2007, dated 2014)", "system": "GnRH release", "assay": "GnRH release in the stalk-median eminence, microdialysis", "format": "in vivo, rhesus monkey", "details": "pubertal female rhesus monkeys; 10 nM infused over 30 min through microdialysis probe", "experimental": "Four female rhesus monkeys, born and raised in the Wisconsin National Primate Research Center, were used in this study. They were housed in pairs (cages 172×86×86 cm) in rooms with 12 h of light 12 h of darkness and controlled temperature (22° C.). The animals were fed a standard diet of Harlan 20% Protein Primate Diet twice each day, supplemented with fresh fruit several times per week. Water was available ad libitum. The protocol for this study was reviewed and approved by the Animal Care and Use Committee, University of Wisconsin, and all experiments were conducted under the guidelines established by the NIH and USDA.\nThe effects of peptide 234 on GnRH release were examined using the microdialysis method. This method allows collection of dialysate samples for GnRH measurement while peptide 234 was infused through the semi-permeable membrane, as described previously (25)′(24). Peptide 234 dissolved in CNS perfusion fluid was infused in the stalk median eminence region through the microdialysis probe for 30 min while dialysates were continuously collected. […]\nOn the day of experiment the monkey was placed in the stereotaxic apparatus under ketamine (15 mg/kg b.w.) and medetomidine (0.03-0.05 mg/kg b.w.) anesthesia. […] The x, y, and z coordinates for the S-ME were calculated using ventriculographs and the final radiographs taken during cranial pedestal implantation surgery. […]", "note": "Non-standard residues stand in square brackets, D forms with d. Residues, ends and D or L forms follow the SMILES beside them."}
{"smiles": "CC(=O)N[C@H](C)C(=O)N[C@@H](CC(N)=O)C(=O)N[C@@H](Cc1c[nH]c2ccccc12)C(=O)N[C@@H](CC(N)=O)C(=O)NCC(=O)N[C@@H](Cc1ccccc1)C(=O)NCC(=O)N[C@H](Cc1c[nH]c2ccccc12)C(=O)N[C@@H](CCCNC(=N)N)C(=O)N[C@@H](Cc1ccccc1)C(N)=O", "note": "[Peptide 234] (Ac-[dA]NWNGFG[dW]RF-NH2)", "values": [{"measurement": "GnRH pulses and mean GnRH levels", "result": "suppressed"}]}
